Reference: patent publication US20170320870A1 (Medical Research Council Technology, priority 2009, published 2017)

Assays:
Assay in all cases: Kinase selectivity: percentage inhibition of each specific kinase at 1 μM inhibitor concentration
Type in all cases: biochemical
[1] = target: each specific kinase (kinase selectivity panel, Table 2) (Homo sapiens, UniProt Q14680); conditions: MELK
Method: (§1) Values are expressed as percentage inhibition of the each specific kinase at 1 μM inhibitor concentration.

[2] = target: each specific kinase (kinase selectivity panel, Table 2) (Homo sapiens, UniProt P06239); conditions: Lck
Chain of each specific kinase (kinase selectivity panel, Table 2) (Homo sapiens, UniProt P06239) (P06239 whole entry): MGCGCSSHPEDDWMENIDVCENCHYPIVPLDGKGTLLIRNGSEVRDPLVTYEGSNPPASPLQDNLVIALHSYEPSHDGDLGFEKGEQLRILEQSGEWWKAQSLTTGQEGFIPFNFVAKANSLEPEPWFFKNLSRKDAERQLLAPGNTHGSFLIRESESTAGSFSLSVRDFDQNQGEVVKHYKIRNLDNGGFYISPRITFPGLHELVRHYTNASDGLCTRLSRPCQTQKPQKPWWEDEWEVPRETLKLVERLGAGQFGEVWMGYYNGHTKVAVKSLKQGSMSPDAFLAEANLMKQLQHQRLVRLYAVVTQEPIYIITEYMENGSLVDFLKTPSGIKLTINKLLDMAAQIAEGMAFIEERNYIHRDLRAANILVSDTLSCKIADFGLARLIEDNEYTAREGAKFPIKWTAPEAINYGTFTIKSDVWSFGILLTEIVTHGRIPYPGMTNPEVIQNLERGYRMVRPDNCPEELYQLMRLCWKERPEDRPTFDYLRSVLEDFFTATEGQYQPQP
Method: as §1

[3] = target: each specific kinase (kinase selectivity panel, Table 2) (Homo sapiens, UniProt P08069); conditions: IGF-1R
Method: as §1

[4] = target: each specific kinase (kinase selectivity panel, Table 2) (Homo sapiens, UniProt Q15139); conditions: PKD1
Method: as §1

[5] = target: each specific kinase (kinase selectivity panel, Table 2) (Homo sapiens, UniProt P28482); conditions: ERK2
Method: as §1

[6] = test system: each specific kinase (kinase selectivity panel, Table 2)
Method: as §1

[7] = target: each specific kinase (kinase selectivity panel, Table 2) (Homo sapiens, UniProt P45983); conditions: JNK1
Method: as §1

[8] = target: each specific kinase (kinase selectivity panel, Table 2) (Homo sapiens, UniProt Q14012); conditions: CAMK1
Method: as §1

[9] = target: each specific kinase (kinase selectivity panel, Table 2) (Homo sapiens, UniProt Q15831); conditions: LKB1
Method: as §1

[10] = target: each specific kinase (kinase selectivity panel, Table 2) (Homo sapiens, UniProt Q16539); conditions: p38a MAPK
Method: as §1

[11] = target: each specific kinase (kinase selectivity panel, Table 2) (Homo sapiens, UniProt P48730); conditions: CK1
Method: as §1

[12] = target: each specific kinase (kinase selectivity panel, Table 2) (Homo sapiens, UniProt Q15303); conditions: HER4
Method: as §1

[13] = target: each specific kinase (kinase selectivity panel, Table 2) (Homo sapiens, UniProt Q9HC98); conditions: NEK6
Method: as §1

[14] = target: each specific kinase (kinase selectivity panel, Table 2) (Homo sapiens, UniProt Q8IWQ3); conditions: BRSK2
Method: as §1

[15] = target: each specific kinase (kinase selectivity panel, Table 2) (Homo sapiens, UniProt P68400); conditions: CK2
Method: as §1

[16] = target: each specific kinase (kinase selectivity panel, Table 2) (Homo sapiens, UniProt Q96GD4); conditions: Aurora B
Method: as §1

[17] = target: each specific kinase (kinase selectivity panel, Table 2) (Homo sapiens, UniProt P33981); conditions: TTK
Chain of each specific kinase (kinase selectivity panel, Table 2) (Homo sapiens, UniProt P33981) (P33981 whole entry): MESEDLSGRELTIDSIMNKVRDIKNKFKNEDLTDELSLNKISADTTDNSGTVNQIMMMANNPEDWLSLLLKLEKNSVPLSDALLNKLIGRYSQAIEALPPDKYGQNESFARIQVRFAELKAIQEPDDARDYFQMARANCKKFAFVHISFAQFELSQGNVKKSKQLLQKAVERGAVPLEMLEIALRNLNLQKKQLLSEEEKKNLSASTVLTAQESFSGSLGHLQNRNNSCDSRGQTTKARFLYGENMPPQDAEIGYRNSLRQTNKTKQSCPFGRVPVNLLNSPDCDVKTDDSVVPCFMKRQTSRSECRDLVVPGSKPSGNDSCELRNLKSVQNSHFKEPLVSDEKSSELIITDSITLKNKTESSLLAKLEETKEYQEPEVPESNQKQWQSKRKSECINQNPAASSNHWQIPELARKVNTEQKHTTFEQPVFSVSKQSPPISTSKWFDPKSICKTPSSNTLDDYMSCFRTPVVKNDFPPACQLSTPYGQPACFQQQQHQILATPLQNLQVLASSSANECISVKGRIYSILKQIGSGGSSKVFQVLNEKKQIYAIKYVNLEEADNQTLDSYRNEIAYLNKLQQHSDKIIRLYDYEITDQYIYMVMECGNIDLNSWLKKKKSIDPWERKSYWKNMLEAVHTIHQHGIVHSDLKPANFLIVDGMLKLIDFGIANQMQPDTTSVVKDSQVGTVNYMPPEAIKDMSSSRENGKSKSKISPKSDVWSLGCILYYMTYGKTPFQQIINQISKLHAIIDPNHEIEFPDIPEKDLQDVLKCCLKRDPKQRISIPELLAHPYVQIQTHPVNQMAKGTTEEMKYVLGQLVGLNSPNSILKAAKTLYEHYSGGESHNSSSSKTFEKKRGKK
Method: as §1

[18] = target: each specific kinase (kinase selectivity panel, Table 2) (Homo sapiens, UniProt Q9H2X6); conditions: HIPK2
Method: as §1

[19] = target: each specific kinase (kinase selectivity panel, Table 2) (Homo sapiens, UniProt Q8IW41); conditions: PRAK
Chain of each specific kinase (kinase selectivity panel, Table 2) (Homo sapiens, UniProt Q8IW41) (Q8IW41 whole entry): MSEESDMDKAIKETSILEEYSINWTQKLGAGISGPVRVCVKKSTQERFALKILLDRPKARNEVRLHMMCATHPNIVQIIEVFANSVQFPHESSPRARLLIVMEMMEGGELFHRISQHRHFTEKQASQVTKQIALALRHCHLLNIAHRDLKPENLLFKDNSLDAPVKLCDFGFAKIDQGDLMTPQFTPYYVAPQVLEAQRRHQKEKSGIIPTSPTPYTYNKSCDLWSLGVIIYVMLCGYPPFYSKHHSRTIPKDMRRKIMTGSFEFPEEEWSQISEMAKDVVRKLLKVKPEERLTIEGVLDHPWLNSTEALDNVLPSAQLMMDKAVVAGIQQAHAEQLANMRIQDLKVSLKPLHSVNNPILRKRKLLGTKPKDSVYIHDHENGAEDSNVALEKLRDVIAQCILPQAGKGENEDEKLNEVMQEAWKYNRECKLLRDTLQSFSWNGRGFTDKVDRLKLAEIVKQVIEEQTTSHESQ
Method: as §1

[20] = target: each specific kinase (kinase selectivity panel, Table 2) (Homo sapiens, UniProt Q9HBH9); conditions: MNK2
Method: as §1

[21] = target: each specific kinase (kinase selectivity panel, Table 2) (Homo sapiens, UniProt Q15746); conditions: SmMLCK
Chain of each specific kinase (kinase selectivity panel, Table 2) (Homo sapiens, UniProt Q15746) (Q15746 whole entry): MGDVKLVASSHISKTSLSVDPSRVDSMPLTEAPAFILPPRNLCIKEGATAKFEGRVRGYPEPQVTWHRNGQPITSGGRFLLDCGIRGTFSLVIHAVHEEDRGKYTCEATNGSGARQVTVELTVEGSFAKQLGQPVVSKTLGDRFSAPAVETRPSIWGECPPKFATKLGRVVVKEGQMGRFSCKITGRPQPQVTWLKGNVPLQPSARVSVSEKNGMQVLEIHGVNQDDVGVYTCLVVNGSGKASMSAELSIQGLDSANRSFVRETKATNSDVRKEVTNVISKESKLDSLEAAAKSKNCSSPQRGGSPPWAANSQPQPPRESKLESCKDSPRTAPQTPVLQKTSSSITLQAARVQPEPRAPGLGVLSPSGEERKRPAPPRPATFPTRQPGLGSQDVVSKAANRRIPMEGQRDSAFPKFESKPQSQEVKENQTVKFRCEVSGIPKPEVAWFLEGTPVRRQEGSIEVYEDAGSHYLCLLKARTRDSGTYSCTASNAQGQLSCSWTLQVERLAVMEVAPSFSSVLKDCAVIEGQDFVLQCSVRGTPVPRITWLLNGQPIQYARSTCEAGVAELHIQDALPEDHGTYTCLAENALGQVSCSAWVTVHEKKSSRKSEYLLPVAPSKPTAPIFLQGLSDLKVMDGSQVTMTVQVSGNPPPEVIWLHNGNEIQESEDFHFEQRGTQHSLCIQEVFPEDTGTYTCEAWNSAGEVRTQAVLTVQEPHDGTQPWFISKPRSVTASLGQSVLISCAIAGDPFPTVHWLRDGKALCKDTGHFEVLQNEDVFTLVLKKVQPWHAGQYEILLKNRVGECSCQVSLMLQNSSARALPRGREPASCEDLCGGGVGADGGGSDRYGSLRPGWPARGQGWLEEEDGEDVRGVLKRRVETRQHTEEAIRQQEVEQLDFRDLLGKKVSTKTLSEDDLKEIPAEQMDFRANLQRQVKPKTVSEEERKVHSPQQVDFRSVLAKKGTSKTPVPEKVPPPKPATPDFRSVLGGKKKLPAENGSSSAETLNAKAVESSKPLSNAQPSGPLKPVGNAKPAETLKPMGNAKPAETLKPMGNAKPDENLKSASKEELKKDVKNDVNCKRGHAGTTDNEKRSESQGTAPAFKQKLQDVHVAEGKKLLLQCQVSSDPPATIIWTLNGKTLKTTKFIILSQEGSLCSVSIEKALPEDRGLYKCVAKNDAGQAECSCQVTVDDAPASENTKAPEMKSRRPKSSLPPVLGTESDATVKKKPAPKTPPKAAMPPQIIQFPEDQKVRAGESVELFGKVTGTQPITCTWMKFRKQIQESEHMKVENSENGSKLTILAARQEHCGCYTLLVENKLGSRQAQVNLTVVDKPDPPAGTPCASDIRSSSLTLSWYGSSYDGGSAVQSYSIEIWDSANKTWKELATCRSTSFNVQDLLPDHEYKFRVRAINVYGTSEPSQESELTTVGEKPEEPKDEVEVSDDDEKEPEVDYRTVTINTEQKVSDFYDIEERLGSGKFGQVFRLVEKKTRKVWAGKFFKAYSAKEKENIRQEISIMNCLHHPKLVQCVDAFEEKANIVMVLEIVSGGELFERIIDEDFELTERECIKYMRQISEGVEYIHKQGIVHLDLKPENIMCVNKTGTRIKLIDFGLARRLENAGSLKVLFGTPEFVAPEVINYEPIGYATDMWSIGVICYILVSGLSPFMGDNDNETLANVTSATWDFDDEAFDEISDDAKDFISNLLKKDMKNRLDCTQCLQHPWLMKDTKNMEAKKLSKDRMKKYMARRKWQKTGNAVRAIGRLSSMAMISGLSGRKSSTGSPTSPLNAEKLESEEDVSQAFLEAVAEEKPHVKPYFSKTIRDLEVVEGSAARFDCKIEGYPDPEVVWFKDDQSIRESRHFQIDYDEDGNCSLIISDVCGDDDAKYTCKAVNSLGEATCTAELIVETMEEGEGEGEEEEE
Method: as §1

[22] = target: each specific kinase (kinase selectivity panel, Table 2) (Homo sapiens, UniProt O96013); conditions: PAK4
Method: as §1

[23] = target: each specific kinase (kinase selectivity panel, Table 2) (Homo sapiens, UniProt P17612); conditions: PKA
Method: as §1

[24] = target: each specific kinase (kinase selectivity panel, Table 2) (Homo sapiens, UniProt P12931); conditions: Src
Method: as §1

[25] = target: each specific kinase (kinase selectivity panel, Table 2) (Homo sapiens, UniProt P23443); conditions: S6K1
Method: as §1

[26] = target: each specific kinase (kinase selectivity panel, Table 2) (Homo sapiens, UniProt O14920); conditions: IKKb
Method: as §1

[27] = target: each specific kinase (kinase selectivity panel, Table 2) (Homo sapiens, UniProt Q14164); conditions: IKKe
Method: as §1

[28] = target: each specific kinase (kinase selectivity panel, Table 2) (Homo sapiens, UniProt Q06187); conditions: BTK
Method: as §1

[29] = target: each specific kinase (kinase selectivity panel, Table 2) (Homo sapiens, UniProt Q02750); conditions: MKK1
Chain of each specific kinase (kinase selectivity panel, Table 2) (Homo sapiens, UniProt Q02750) (Q02750 whole entry): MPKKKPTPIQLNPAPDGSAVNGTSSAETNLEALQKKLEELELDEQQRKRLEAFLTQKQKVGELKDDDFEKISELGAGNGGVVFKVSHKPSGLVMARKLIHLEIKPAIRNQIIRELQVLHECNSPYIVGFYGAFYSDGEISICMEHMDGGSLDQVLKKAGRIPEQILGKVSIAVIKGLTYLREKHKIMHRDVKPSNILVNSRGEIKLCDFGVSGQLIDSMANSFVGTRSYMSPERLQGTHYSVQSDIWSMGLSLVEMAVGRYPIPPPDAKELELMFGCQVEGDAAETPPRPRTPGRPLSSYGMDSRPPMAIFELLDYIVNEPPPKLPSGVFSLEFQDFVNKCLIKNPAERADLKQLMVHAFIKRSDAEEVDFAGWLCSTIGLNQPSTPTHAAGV
Method: as §1

[30] = target: each specific kinase (kinase selectivity panel, Table 2) (Homo sapiens, UniProt P24941); conditions: CDK2-Cyclin A
Method: as §1

[31] = target: each specific kinase (kinase selectivity panel, Table 2) (Homo sapiens, UniProt Q9NWZ3); conditions: IRAK4
Method: as §1

[32] = target: each specific kinase (kinase selectivity panel, Table 2) (Homo sapiens, UniProt P27448); conditions: MARK3
Chain of each specific kinase (kinase selectivity panel, Table 2) (Homo sapiens, UniProt P27448) (P27448 whole entry): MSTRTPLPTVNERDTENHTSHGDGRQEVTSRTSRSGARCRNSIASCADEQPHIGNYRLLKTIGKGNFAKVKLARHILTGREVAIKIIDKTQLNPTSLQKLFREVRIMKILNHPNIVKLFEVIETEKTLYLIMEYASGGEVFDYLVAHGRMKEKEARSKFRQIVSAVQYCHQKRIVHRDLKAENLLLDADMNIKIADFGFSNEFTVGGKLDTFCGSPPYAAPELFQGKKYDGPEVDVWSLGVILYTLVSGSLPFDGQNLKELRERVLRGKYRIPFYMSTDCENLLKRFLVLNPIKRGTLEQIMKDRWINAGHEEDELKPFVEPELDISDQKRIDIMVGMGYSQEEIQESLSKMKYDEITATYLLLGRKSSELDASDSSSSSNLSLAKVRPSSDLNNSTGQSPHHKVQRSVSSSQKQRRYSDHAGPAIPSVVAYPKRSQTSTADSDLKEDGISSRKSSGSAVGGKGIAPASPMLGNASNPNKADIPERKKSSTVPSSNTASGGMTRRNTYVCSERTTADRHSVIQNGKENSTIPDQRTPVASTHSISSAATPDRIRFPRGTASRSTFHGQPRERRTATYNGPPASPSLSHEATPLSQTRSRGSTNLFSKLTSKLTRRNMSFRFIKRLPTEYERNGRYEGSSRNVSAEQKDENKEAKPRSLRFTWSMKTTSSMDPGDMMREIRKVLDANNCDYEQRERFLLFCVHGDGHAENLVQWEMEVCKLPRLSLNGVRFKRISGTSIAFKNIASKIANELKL
Method: as §1

[33] = target: each specific kinase (kinase selectivity panel, Table 2) (Homo sapiens, UniProt P54753); conditions: EPH-B3
Method: as §1

[34] = target: each specific kinase (kinase selectivity panel, Table 2) (Homo sapiens, UniProt P27361); conditions: ERK1
Method: as §1

| Compound | percentage inhibition of MELK [1] [percentage] | percentage inhibition of Lck [2] [percentage] | percentage inhibition of IGF-1R [3] [percentage] | percentage inhibition of PKD1 [4] [percentage] | percentage inhibition of ERK2 [5] [percentage] | percentage inhibition of AMPK [6] [percentage] | percentage inhibition of PHK [6] [percentage] | percentage inhibition of JNK1 [7] [percentage] | percentage inhibition of CAMK1 [8] [percentage] | percentage inhibition of LKB1 [9] [percentage] | percentage inhibition of p38a MAPK [10] [percentage] | percentage inhibition of CK1 [11] [percentage] | percentage inhibition of HER4 [12] [percentage] | percentage inhibition of NEK6 [13] [percentage] | percentage inhibition of BRSK2 [14] [percentage] | percentage inhibition of CK2 [15] [percentage] | percentage inhibition of Aurora B [16] [percentage] | percentage inhibition of TTK [17] [percentage] | percentage inhibition of HIPK2 [18] [percentage] | percentage inhibition of PRAK [19] [percentage] | other results |
| --- | --- | --- | --- | --- | --- | --- | --- | --- | --- | --- | --- | --- | --- | --- | --- | --- | --- | --- | --- | --- | --- |
| CC[C@H](C)Oc1nccc2[nH]nc(C)c12 [Example 121, 4-((S)-sec-Butoxy)-3-methyl-1H-pyrazolo[4,3-c]pyridine] | 61 | 0 | 46 | 29 | 0 | 29 | 7 | 7 | 5 | 42 | 0 | 31 | 0 | 6 | 13 | 0 | 0 | 30 | 0 | 0 | percentage inhibition of MNK2 [20]: 7 percentage; percentage inhibition of SmMLCK [21]: 22 percentage; percentage inhibition of PAK4 [22]: 26 percentage; percentage inhibition of PKA [23]: 26 percentage; percentage inhibition of Src [24]: 0 percentage; percentage inhibition of S6K1 [25]: 0 percentage; percentage inhibition of IKKb [26]: 15 percentage; percentage inhibition of IKKe [27]: 19 percentage; percentage inhibition of BTK [28]: 0 percentage; percentage inhibition of MKK1 [29]: 47 percentage; percentage inhibition of CDK2-Cyclin A [30]: 61 percentage; percentage inhibition of IRAK4 [31]: 12 percentage; percentage inhibition of MARK3 [32]: 12 percentage; percentage inhibition of EPH-B3 [33]: 6 percentage; percentage inhibition of ERK1 [34]: 1 percentage |
| O=C(CCc1n[nH]c2ccnc(NC3CCCCC3)c12)N1CCC[C@H](c2ccccc2)C1 [Example 172, 3-(4-Cyclohexylamino-1H-pyrazolo[4,3-c]pyridin-3-yl)-1-((R)-3-phenyl-piperidin-1-yl)-propan-1-one] | 5 | 25 | 18 | 1 | 9 | 0 | 26 | 17 | 14 | 8 | 6 | 6 | 10 | 1 | 0 | 3 | 15 | 14 | 0 | 0 | percentage inhibition of MNK2 [20]: 0 percentage; percentage inhibition of SmMLCK [21]: 18 percentage; percentage inhibition of PAK4 [22]: 24 percentage; percentage inhibition of PKA [23]: 5 percentage; percentage inhibition of Src [24]: 6 percentage; percentage inhibition of S6K1 [25]: 14 percentage; percentage inhibition of IKKb [26]: 22 percentage; percentage inhibition of IKKe [27]: 17 percentage; percentage inhibition of BTK [28]: 12 percentage; percentage inhibition of MKK1 [29]: 17 percentage; percentage inhibition of CDK2-Cyclin A [30]: 0 percentage; percentage inhibition of IRAK4 [31]: 0 percentage; percentage inhibition of MARK3 [32]: 18 percentage; percentage inhibition of EPH-B3 [33]: 3 percentage; percentage inhibition of ERK1 [34]: 0 percentage |
